Measurements reported in patent US4477443A, “Tylosin derivatives, their preparation and pharmaceutical compositions containing them” (Zaidan Hojin Biselbutsu Kagaku Kenkyu Kai (Microbial …, priority 1981, dated 1984).
Values after ≈ are worked out from the molar mass of the structure shown.

Assays:
Assay in all cases: antimicrobial activity (MIC), Table I
Assay type in all cases: cell-based
Staph. aureus 193 = conditions: Staphylococcus aureus; Staph. aureus 193; read-out: MIC
Staph. aureus 209 P = conditions: Staphylococcus aureus; Staph. aureus 209 P; read-out: MIC
Staph. aureus MS 9861 = conditions: Staphylococcus aureus, MS9861; Staph. aureus MS 9861; read-out: MIC
Sarcina lutea PCI 1001 = conditions: Micrococcus luteus, PCI1001; Sarcina lutea PCI 1001; read-out: MIC
B. subtilis NRRL B-558 = conditions: Bacillus subtilis, NRRLB558; B. subtilis NRRL B-558; read-out: MIC
Coryn. bovis 1810 = conditions: Corynebacterium bovis; Coryn. bovis 1810; read-out: MIC
E. coli NIHJ = conditions: Escherichia coli; E. coli NIHJ; read-out: MIC
E. coli K-12 = conditions: Escherichia coli, K12; E. coli K-12; read-out: MIC
E. coli K-12 R-5 = conditions: Escherichia coli, K12R5; E. coli K-12 R-5; read-out: MIC
Kleb. pneumoniae PCI 602 = conditions: Klebsiella pneumoniae, PCI602; Kleb. pneumoniae PCI 602; read-out: MIC
[1] = tested on: Shigella dysenteriae JS 11910; conditions: JS11910
Sal. enteritidis 1891 = conditions: Salmonella enterica; Sal. enteritidis 1891; read-out: MIC

## CCC1OC(=O)CC(O)C(C)C(OC2OC(C)C(O)C(N(C)C)C2O)C(CC=O)CC(C)C(=O)C=CC(C)=CC1CN(C)Cc1ccccc1 (stereo not drawn) [Example 25, 23-deoxy-23-(N-methylbenzylamino)mycaminosyl tylonolide]
Staph. aureus 193
  MIC: 0.2 µg/mL (≈ 0.285 µM)
Staph. aureus 209 P
  MIC: < 0.2 µg/mL
Staph. aureus MS 9861
  MIC: 0.2 µg/mL (≈ 0.285 µM)
Sarcina lutea PCI 1001
  MIC: 0.39 µg/mL (≈ 0.556 µM)
B. subtilis NRRL B-558
  MIC: 3.12 µg/mL (≈ 4.45 µM)
Coryn. bovis 1810
  MIC: < 0.2 µg/mL
E. coli NIHJ
  MIC: 1.56 µg/mL (≈ 2.23 µM)
E. coli K-12
  MIC: 3.12 µg/mL (≈ 4.45 µM)
E. coli K-12 R-5
  MIC: 6.25 µg/mL (≈ 8.92 µM)
Kleb. pneumoniae PCI 602
  MIC: 0.39 µg/mL (≈ 0.556 µM)
[1]
  MIC: 3.12 µg/mL (≈ 4.45 µM)
Sal. enteritidis 1891
  MIC: 1.56 µg/mL (≈ 2.23 µM)

## CCC1OC(=O)CC(O)C(C)C(OC2OC(C)C(O)C(N(C)C)C2O)C(CC=O)CC(C)C(=O)C=CC(C)=CC1CN(C)CCc1ccccc1 (stereo not drawn) [Example 26, 23-deoxy-23-(N-methylphenethylamino)mycaminosyl tylonolide]
Staph. aureus 193
  MIC: 0.2 µg/mL (≈ 0.28 µM)
Staph. aureus 209 P
  MIC: < 0.2 µg/mL
Staph. aureus MS 9861
  MIC: 12.5 µg/mL (≈ 17.5 µM)
Sarcina lutea PCI 1001
  MIC: < 0.2 µg/mL
B. subtilis NRRL B-558
  MIC: 50 µg/mL (≈ 69.9 µM)
Coryn. bovis 1810
  MIC: < 0.2 µg/mL
E. coli NIHJ
  MIC: 3.12 µg/mL (≈ 4.36 µM)
E. coli K-12
  MIC: 12.5 µg/mL (≈ 17.5 µM)
E. coli K-12 R-5
  MIC: 12.5 µg/mL (≈ 17.5 µM)
Kleb. pneumoniae PCI 602
  MIC: 0.78 µg/mL (≈ 1.09 µM)
[1]
  MIC: 3.12 µg/mL (≈ 4.36 µM)
Sal. enteritidis 1891
  MIC: 3.12 µg/mL (≈ 4.36 µM)

## CCC1OC(=O)CC(O)C(C)C(OC2OC(C)C(O)C(N(C)C)C2O)C(CC=O)CC(C)C(=O)C=CC(C)=CC1CN(C)C1CCCCC1 (stereo not drawn) [Example 27, 23-deoxy-23-(N-methylcyclohexylamino)mycaminosyl tylonolide]
Staph. aureus 193
  MIC: 0.78 µg/mL (≈ 1.13 µM)
Staph. aureus 209 P
  MIC: < 0.2 µg/mL
Staph. aureus MS 9861
  MIC: 3.12 µg/mL (≈ 4.5 µM)
Sarcina lutea PCI 1001
  MIC: < 0.2 µg/mL
B. subtilis NRRL B-558
  MIC: < 0.2 µg/mL
Coryn. bovis 1810
  MIC: < 0.2 µg/mL
E. coli NIHJ
  MIC: 0.78 µg/mL (≈ 1.13 µM)
E. coli K-12
  MIC: 3.12 µg/mL (≈ 4.5 µM)
E. coli K-12 R-5
  MIC: 3.12 µg/mL (≈ 4.5 µM)
Kleb. pneumoniae PCI 602
  MIC: < 0.2 µg/mL
[1]
  MIC: < 0.2 µg/mL
Sal. enteritidis 1891
  MIC: < 0.2 µg/mL

## CCC1OC(=O)CC(O)C(C)C(OC2OC(C)CC(N(C)C)C2O)C(CC=O)CC(C)C(=O)C=CC(C)=CC1CN1CCC(=O)CC1 (stereo not drawn) [Example 28, 23,4'-dideoxy-23-(4-pipridone)mycaminosyl tylonolide]
Staph. aureus 193
  MIC: < 0.2 µg/mL
Staph. aureus 209 P
  MIC: < 0.2 µg/mL
Staph. aureus MS 9861
  MIC: 0.39 µg/mL (≈ 0.588 µM)
Sarcina lutea PCI 1001
  MIC: < 0.2 µg/mL
B. subtilis NRRL B-558
  MIC: < 0.2 µg/mL
Coryn. bovis 1810
  MIC: 0.39 µg/mL (≈ 0.588 µM)
E. coli NIHJ
  MIC: 3.12 µg/mL (≈ 4.71 µM)
E. coli K-12
  MIC: 6.25 µg/mL (≈ 9.43 µM)
E. coli K-12 R-5
  MIC: 6.25 µg/mL (≈ 9.43 µM)
Kleb. pneumoniae PCI 602
  MIC: 1.56 µg/mL (≈ 2.35 µM)
[1]
  MIC: 0.78 µg/mL (≈ 1.18 µM)
Sal. enteritidis 1891
  MIC: 6.25 µg/mL (≈ 9.43 µM)

## CCC1OC(=O)CC(O)C(C)C(OC2OC(C)CC(N(C)C)C2O)C(CC=O)CC(C)C(=O)C=CC(C)=CC1CN1CCOCC1 (stereo not drawn) [Example 29, 23,4'-dideoxy-23-morpholinomycaminosyl tylonolide]
Staph. aureus 193
  MIC: 0.39 µg/mL (≈ 0.599 µM)
Staph. aureus 209 P
  MIC: 0.39 µg/mL (≈ 0.599 µM)
Staph. aureus MS 9861
  MIC: 0.78 µg/mL (≈ 1.2 µM)
Sarcina lutea PCI 1001
  MIC: < 0.2 µg/mL
B. subtilis NRRL B-558
  MIC: 0.39 µg/mL (≈ 0.599 µM)
Coryn. bovis 1810
  MIC: < 0.2 µg/mL
E. coli NIHJ
  MIC: 3.12 µg/mL (≈ 4.79 µM)
E. coli K-12
  MIC: 25 µg/mL (≈ 38.4 µM)
E. coli K-12 R-5
  MIC: 12.5 µg/mL (≈ 19.2 µM)
Kleb. pneumoniae PCI 602
  MIC: 3.12 µg/mL (≈ 4.79 µM)
[1]
  MIC: 0.39 µg/mL (≈ 0.599 µM)
Sal. enteritidis 1891
  MIC: 12.5 µg/mL (≈ 19.2 µM)

## CCC1OC(=O)CC(O)C(C)C(OC2OC(C)CC(N(C)C)C2O)C(CC=O)CC(C)C(=O)C=CC(C)=CC1CN1CCCCC1CO (stereo not drawn) [Example 31, 23,4'-dideoxy-23-[2-(hydroxymethyl)piperidino]mycaminosyl tylonolide]
Staph. aureus 193
  MIC: 0.39 µg/mL (≈ 0.574 µM)
Staph. aureus 209 P
  MIC: < 0.2 µg/mL
Staph. aureus MS 9861
  MIC: 0.39 µg/mL (≈ 0.574 µM)
Sarcina lutea PCI 1001
  MIC: < 0.2 µg/mL
B. subtilis NRRL B-558
  MIC: 0.39 µg/mL (≈ 0.574 µM)
Coryn. bovis 1810
  MIC: 0.39 µg/mL (≈ 0.574 µM)
E. coli NIHJ
  MIC: 0.39 µg/mL (≈ 0.574 µM)
E. coli K-12
  MIC: 0.78 µg/mL (≈ 1.15 µM)
E. coli K-12 R-5
  MIC: 0.78 µg/mL (≈ 1.15 µM)
Kleb. pneumoniae PCI 602
  MIC: 0.78 µg/mL (≈ 1.15 µM)
[1]
  MIC: 0.78 µg/mL (≈ 1.15 µM)
Sal. enteritidis 1891
  MIC: 0.39 µg/mL (≈ 0.574 µM)

## CCC1OC(=O)CC(O)C(C)C(OC2OC(C)CC(N(C)C)C2O)C(CC=O)CC(C)C(=O)C=CC(C)=CC1CN1CCN(C)CC1 (stereo not drawn) [Example 32, 23,4'-dideoxy-23-(4-methylpiperazin-1-yl)mycaminosyl tylonolide]
Staph. aureus 193
  MIC: 1.56 µg/mL (≈ 2.35 µM)
Staph. aureus 209 P
  MIC: 0.78 µg/mL (≈ 1.17 µM)
Staph. aureus MS 9861
  MIC: 6.25 µg/mL (≈ 9.41 µM)
Sarcina lutea PCI 1001
  MIC: < 0.2 µg/mL
B. subtilis NRRL B-558
  MIC: 1.56 µg/mL (≈ 2.35 µM)
Coryn. bovis 1810
  MIC: 6.25 µg/mL (≈ 9.41 µM)
E. coli NIHJ
  MIC: 3.12 µg/mL (≈ 4.7 µM)
E. coli K-12
  MIC: 25 µg/mL (≈ 37.7 µM)
E. coli K-12 R-5
  MIC: 6.25 µg/mL (≈ 9.41 µM)
Kleb. pneumoniae PCI 602
  MIC: 25 µg/mL (≈ 37.7 µM)
[1]
  MIC: 0.2 µg/mL (≈ 0.301 µM)
Sal. enteritidis 1891
  MIC: 6.25 µg/mL (≈ 9.41 µM)
